pIC50: −log10 of the molar value.
Target: MTH1 (Homo sapiens, UniProt P36639)
Test: MTH1 enzymatic assay and IC50 value determination (malachite green)
Assay type: biochemical
Details: MTH1 4.8 nM, dGTP 100 μM, 15 minutes at 22° C.
Method: MTH1 Enzymatic Assay and IC50 Value Determination
MTH1 catalyzes the hydrolysis of dGTP to dGMP and PPi. By coupling the reaction to pyrophosphatase added in excess PPi is converted to Pi that can be detected by using the malachite green assay reagent. Briefly, for IC50 value determination the compound to be analyzed is diluted in assay buffer in a 1:3 dilution series generating 12 different compound concentrations giving a final DMSO concentration of 1% in the assay well. MTH1 diluted in assay buffer (100 mM Tris-acetate, 40 mM NaCl, 10 mM magnesium acetate, 1 mM DTT and 0.005% Tween 20) fortified with E. coli pyrophosphatase (0.8 U/ml) is added to a final concentration of 4.8 nM. dGTP diluted in assay buffer is added to a final concentration of 100 μM. The reaction mixture is incubated with shaking for 15 minutes at 22° C. To 100 μl reaction mixture is 25 μl Malachite green assay regent (0.095% Malachite green in 17% H2SO4, 1.5% Ammonium molybdate, 0.17% Tween 20) added followed by incubation with shaking for 15 minutes at 22° C.
The absorbance of the assay plate is read at 630 nm using an EnVision Multilabel plate reader. The IC50 value is determined by fitting a dose response curve to the data points using nonlinear regression analysis and the equation Y=Bottom+(Top−Bottom)/(1+10^((Log IC50−X)*HillSlope)), where Y is the read absorbance at 630 nm and X is log [compound].

SMILES | pIC50 (group: between 2 μM and 10 μM) | pIC50 (group: less than 200 nM)
Cc1cccc(-c2cc(NC3CCCCC3NC(=O)OC(C)(C)C)nc(N)n2)c1C (mixture of isomers) [Example 372, tert-Butyl N-(2-{[2-amino-6-(2,3-dimethylphenyl)pyrimidin-4-yl]amino}cyclohexyl)-carbamate] | 5.00 to 5.70 | 
CCCNc1cc(-c2ccccc2)nc(N)n1 [Example 4, 6-phenyl-4-N-propylpyrimidine-2,4-diamine] |  | > 6.70
CCCNc1cc(-c2ccc(S(C)(=O)=O)cc2)nc(N)n1 [Example 5, 6-(4-methanesulfonylphenyl)-4-N-propylpyrimidine-2,4-diamine] | 5.00 to 5.70 | 
Nc1nc(NCC2CC2)cc(-c2ccccc2)n1 [Example 6, 4-N-(cyclopropylmethyl)-6-phenylpyrimidine-2,4-diamine] |  | > 6.70
Nc1nc(NCc2ccccc2)cc(-c2ccccc2)n1 [Example 11, 4-N-benzyl-6-phenylpyrimidine-2,4-diamine] |  | > 6.70
Nc1nc(NCCN2CCOCC2)cc(-c2ccccc2)n1 [Example 12, 4-N-[2-(morpholin-4-yl)ethyl]-6-phenylpyrimidine-2,4-diamine] | 5.00 to 5.70 | 
CC(C)(C)Nc1cc(-c2ccc(Cl)cc2)nc(N)n1 [Example 14, 4-N-tert-butyl-6-(4-chlorophenyl)pyrimidine-2,4-diamine] | 5.00 to 5.70 | 
Nc1nc(NC2CCOCC2)cc(-c2ccc(Cl)cc2)n1 [Example 15, 6-(4-chlorophenyl)-4-N-(oxan-4-yl)pyrimidine-2,4-diamine] | 5.00 to 5.70 | 
COc1ccc(-c2cc(NC3CC3)nc(N)n2)cc1 [Example 18, 4-N-cyclopropyl-6-(4-methoxyphenyl)pyrimidine-2,4-diamine] |  | > 6.70
CC(C)(C)Nc1cc(-c2cccc(C(F)(F)F)c2)nc(N)n1 [Example 20, 4-N-tert-butyl-6-[3-(trifluoromethyl)phenyl]pyrimidine-2,4-diamine] | 5.00 to 5.70 | 
Nc1nc(NC2CCOCC2)cc(-c2cccc(Cl)c2)n1 [Example 21, 6-(3-chlorophenyl)-4-N-(oxan-4-yl)pyrimidine-2,4-diamine] | 5.00 to 5.70 | 
CNc1cc(-c2ccc3c(ccn3S(=O)(=O)c3ccccc3)c2)nc(N)n1 [Example 31, 6-[1-(benzenesulfonyl)-1H-indol-5-yl]-4-N-methylpyrimidine-2,4-diamine] |  | > 6.70
CNc1cc(-c2ccccc2OC)nc(N)n1 [Example 32, 6-(2-methoxyphenyl)-4-N-methylpyrimidine-2,4-diamine] |  | > 6.70
CNc1cc(-c2cncc3ccccc23)nc(N)n1 [Example 35, 6-(isoquinolin-4-yl)-4-N-methylpyrimidine-2,4-diamine] |  | > 6.70
CNc1cc(-c2ccc(C(F)(F)F)cc2)nc(N)n1 [Example 36, 4-N-methyl-6-[4-(trifluoromethyl)phenyl]pyrimidine-2,4-diamine] |  | > 6.70
CNc1cc(-c2cccc(C#N)c2)nc(N)n1 [Example 40, 3-[2-amino-6-(methylamino)pyrimidin-4-yl]benzonitrile] |  | > 6.70
CNc1cc(-c2ccc(S(C)(=O)=O)cc2)nc(N)n1 [Example 43, 6-(4-methanesulfonylphenyl)-4-N-methylpyrimidine-2,4-diamine] |  | > 6.70
CNc1cc(-c2cccc(C(=O)N3CCOCC3)c2)nc(N)n1 [Example 44, 4-N-methyl-6-[3-(morpholine-4-carbonyl)phenyl]pyrimidine-2,4-diamine] |  | > 6.70
CNc1cc(-c2ccc(NS(C)(=O)=O)cc2)nc(N)n1 [Example 46, N-{4-[2-amino-6-(methylamino)pyrimidin-4-yl]phenyl}methanesulfonamide] |  | > 6.70
CNc1cc(-c2ccc(C#N)cc2)nc(N)n1 [Example 51, 4-[2-amino-6-(methylamino)pyrimidin-4-yl]benzonitrile] |  | > 6.70

SMILES | pIC50 (group: between 2 μM and 10 μM) | pIC50 (group: less than 200 nM)
CNc1cc(-c2cccc3ncccc23)nc(N)n1 [Example 52, 4-N-methyl-6-(quinolin-5-yl)pyrimidine-2,4-diamine] |  | > 6.70
Nc1nc(NC2CCCC2)cc(-c2ccc(Cl)cc2)n1 [Example 55, 6-(4-chlorophenyl)-4-N-cyclopentylpyrimidine-2,4-diamine] |  | > 6.70
COc1ccc(-c2cc(NC3CCCC3)nc(N)n2)cc1 [Example 56, 4-N-cyclopentyl-6-(4-methoxyphenyl)pyrimidine-2,4-diamine] |  | > 6.70
Nc1nc(NC2CCCC2)cc(-c2cccc(C(F)(F)F)c2)n1 [Example 57, 4-N-cyclopentyl-6-[3-(trifluoromethyl)phenyl]pyrimidine-2,4-diamine] |  | > 6.70
COc1ccc(-c2cc(NC3CCC3)nc(N)n2)cc1 [Example 59, 4-N-cyclobutyl-6-(4-methoxyphenyl)pyrimidine-2,4-diamine] |  | > 6.70
Nc1nc(NC2CCC2)cc(-c2cccc(Cl)c2Cl)n1 [Example 64, 4-N-cyclobutyl-6-(2,3-dichlorophenyl)pyrimidine-2,4-diamine] |  | > 6.70
Nc1nc(NC2CCCC2)cc(-c2cccc(Cl)c2Cl)n1 [Example 65, 4-N-cyclopentyl-6-(2,3-dichlorophenyl)pyrimidine-2,4-diamine] |  | > 6.70
CCNc1cc(-c2cccc(Cl)c2Cl)nc(N)n1 [Example 66, 6-(2,3-dichlorophenyl)-4-N-ethylpyrimidine-2,4-diamine] |  | > 6.70
Nc1nc(NC2CCOC2)cc(-c2cccc(Cl)c2Cl)n1 (stereo not drawn) [Example 67, 6-(2,3-dichlorophenyl)-4-N-(oxolan-3-yl)pyrimidine-2,4-diamine] |  | > 6.70
CNc1cc(-c2cc(F)c(F)cc2F)nc(N)n1 [Example 72, 4-N-methyl-6-(2,4,5-trifluorophenyl)pyrimidine-2,4-diamine] |  | > 6.70
CNc1cc(-c2ccc(F)cc2OC)nc(N)n1 [Example 73, 6-(4-fluoro-2-methoxyphenyl)-4-N-methylpyrimidine-2,4-diamine] |  | > 6.70
CNc1cc(-c2cc(Cl)ccc2C)nc(N)n1 [Example 74, 6-(5-chloro-2-methylphenyl)-4-N-methylpyrimidine-2,4-diamine] |  | > 6.70
CNc1cc(-c2ccccc2Cl)nc(N)n1 [Example 77, 6-(2-chlorophenyl)-4-N-methylpyrimidine-2,4-diamine] |  | > 6.70
CNc1cc(-c2ccccn2)nc(N)n1 [Example 78, 4-N-methyl-6-(pyridin-2-yl)pyrimidine-2,4-diamine] | 5.00 to 5.70 | 
CNc1cc(-c2ccc(OC)c(C)c2)nc(N)n1 [Example 79, 6-(4-methoxy-3-methylphenyl)-4-N-methylpyrimidine-2,4-diamine] |  | > 6.70
CNc1cc(-c2ccc(F)c(Cl)c2)nc(N)n1 [Example 80, 6-(3-chloro-4-fluorophenyl)-4-N-methylpyrimidine-2,4-diamine] |  | > 6.70
CNc1cc(-c2ccc(OC(F)(F)F)cc2)nc(N)n1 [Example 81, 4-N-methyl-6-[4-(trifluoromethoxy)phenyl]pyrimidine-2,4-diamine] |  | > 6.70
CNc1cc(-c2cccc(C(F)(F)F)c2F)nc(N)n1 [Example 85, 6-[2-fluoro-3-(trifluoromethyl)phenyl]-4-N-methylpyrimidine-2,4-diamine] |  | > 6.70
CNc1cc(-c2cccc(Cl)c2F)nc(N)n1 [Example 87, 6-(3-chloro-2-fluorophenyl)-4-N-methylpyrimidine-2,4-diamine] |  | > 6.70
